Values of other authors as cited in US11447440B2, “Treprostinil monohydrate crystals and methods for preparation thereof” (CHIROGATE INTERNATIONAL INC., priority 2020, dated 2022).
Where two headings read alike, the source gives them in different places.

Conditions: for Treprostinil dimer formation on standing: stability tests

SMILES | Treprostinil dimer formation (accelerated stability tests at 25° C., 30° C. and 40° C. for 6 months (Lot No. 01M07033)) | stability in comparison with the anhydrous Treprostinil crystal (storage at room temperature over a long period of time) | Treprostinil dimer formation on standing (at 5° C.) | Treprostinil dimer formation on standing (at higher temperature (than 25° C.)) | Treprostinil dimer formation on standing (standing at 25° C.)
CCCCC[C@H](O)CC[C@@H]1[C@H]2Cc3c(cccc3OCC(=O)O)C[C@H]2C[C@H]1O.O [Treprostinil monohydrate crystal] | almost negligible | more stable |  |  | 
CCCCC[C@H](O)CC[C@@H]1[C@H]2Cc3cccc(OCC(=O)O)c3C[C@H]2C[C@H]1O [anhydrous Treprostinil] |  |  | negligible | increased | continuing to form
